melting point | Compound
127 to 128 °C | Cc1nccc(N2CCC(CN3CCN(C(=O)c4ccc(F)cc4)CC3)CC2)n1 [Example 8, 1-(4-fluorobenzoyl)-4-[1-(2-methyl-4-pyrimidinyl)-4-piperidylmethyl]piperazine]
114 to 117 °C | Cc1nccc(N2CCC(O)(CN3CCN(C(=O)c4ccc(F)cc4)CC3)CC2)n1 [Example 15, 1-(4-fluorobenzoyl)-4-[1-(2-methylpyrimidin-4-yl]-4-hydroxy-4-piperidylmethyl]piperazine]
73 to 74 °C | Cc1cc(N2CCC(CN3CCN(S(=O)(=O)c4ccc(Cl)cc4)CC3)CC2)nc(C)n1 [Example 11, 1-(4-chlorophenylsulphonyl)-4-[1-(2,6-dimethylpyrimidin-4-yl)-4-piperidylmethyl]piperazine]

The next lines start with the compound.

Compound | melting point
O=S(=O)(c1ccc(Br)cc1)N1CCN(CC2CCN(c3ccncc3Cl)CC2)CC1 [Example 20, 1-(4-bromophenylsulphonyl)-4-[1-(3-chloro-4-pyridyl)piperidin-4-ylmethyl]piperazine] | 158 to 159 °C
Cc1nccc(N2CCN(CC3CCN(S(=O)(=O)c4ccc(Cl)cc4)CC3)CC2)n1 [Example 1, 1-(4-chlorophenylsulphonyl)-4-[1-(2-methylpyrimidin-4-yl)piperazin-4ylmethyl]piperidine] | 191 to 193 °C (dec.)
O=S(=O)(c1ccc(Br)cc1)N1CCN(CC2CCN(c3ccncc3)CC2)CC1 [Example 19, 1-(4-bromophenylsulphonyl)-4-[1-(4-pyridyl)piperidin-4-ylmethyl]piperazine] | 179 to 180 °C
O=S(=O)(c1ccc(Br)cc1)N1CCC(CN2CCC(c3ccncc3)CC2)CC1 [Example 3, 1-(4-bromophenylsulphonyl)-4-[4-(4-pyridyl)-1-piperidylmethyl]piperidine] | 163 to 164 °C
